{"source": "patent US7081247B2", "about": "“Composition and method for inhibiting polar capsule discharge and protecting a subject from nematocyst sting” (priority 2002, dated 2006)", "key": {"[1]": {"test_system": "isolated nematocyst capsules", "details": "50 mM CaCl2; cited from earlier work"}, "[2]": {"test_system": "Aiptasia Mutabilis acontial filament nematocysts", "details": "2 mM in seawater medium; cited from earlier work"}, "[3]": {"test_system": "nematocyte batteries in the oral arms of Pelagia nociluca", "details": "applied through a gelatin probe; cited from earlier work"}, "[4]": {"assay": "Water resistance of ointment on virgin wool squares in seawater (atomic absorption)", "format": "physicochemical", "details": "80 RPM", "method": "To determine the water resistance of an ointment containing 50 mM LaCl3, prepared according the above-described conditions, three squares (10×10 CM) of virgin wool, keratin protein that is used as a substrate to approximate human skin, were used. Each square of wool was treated with 1-gram of ointment containing 50 mM LaCl3. After 20 minutes of drying at room temperature, the squares of wool were immersed in one liter of seawater and agitated (80 RPM) for 30 minutes, 60 minutes, or 120 minutes. The ointment was extracted separately from each square of wool with 50 ml 1% Tritox100 under boiling. The Lanthanum chloride concentration of each sample of extracted ointment was monitored with the use of atomic absorption."}, "[5]": {"test_system": "jellyfish Rhopilema nomadica nematocysts", "assay": "Inhibition of nematocyst discharge into human skin samples (immunohistochemical analysis)", "format": "cell-based", "details": "human skin sections, 10 seconds contact with jellyfish tentacles", "method": "Normal human skin was obtained from neonatal elective circumcision. The skin was immediately placed into sterile phosphate buffered saline (PBS) containing antibiotic/antimycotic. The tissue was frozen and embedded in Tissue-TekTM. It was then sectioned into 50 μm sections using a cryostat. The sections were attached to superfrost/plus microscope slide (Fisherbrand) and maintained at […] until time of use. All sections were examined to ensure that they were perpendicular to the plane of the epidermis, exposing cross-sections of epidiermis, dermis and sub-cutaneos tissue.\nFor immunoassay tests to detect cnidaria stinging level of human skin, a polyclonal antibody specific for nematocyst toxin was prepared, as described in Lotan et al (1996).\nBriefly, the HPLC fraction containing the toxin phospholipase A2 from the jellyfish Rhopilema nomadica was isolated and injected into rabbits as described in Vaitukaitis, pp. 46–52, “Immunochemical Techniques, Part B,” in Methods in enzymology, vol. 73, ed. Larson & Vunkis (academic Press, New York, 1981). Serum was collected from the rabbits after two injections, and the presence of antibody against the jellyfish toxin was examined on immunoblots.\nThe slides prepared and frozen as described above were thawed at room temperature. The slides were submersed in sea water and then attached to jellyfish or sea anemone tentacles for 10 seconds. The tentacles were detached, the slide washed with PBS, and blocked using 5% Fetal Bovine Serum, and 0.1% Triton X100 in PBS (blocking solution). All washing incubation steps were conducted on a tilting shaker at room temperature. The slides were incubated at 10 ml of block solution containing a 1:2, 500 dilution of the anti-toxin antibody for one hour. After incubation, the slide were washed five times for five minutes each wash with 100 mL of 0.1% TritonX100 in PBS (Wash solution). […]\nTwelve sections of human skin samples were tested in each experiment. […] The number of nematocysts that penetrated the skin was determined using immunohistochemical analysis."}}}
{"compound": "[Ca+2].[Cl-].[Cl-]", "note": "[CaCl2]", "values": [{"measurement": "discharge of isolated nematocyst capsules", "setting": "[1]", "result": "do not discharge"}]}
{"compound": "[Cl-].[Cl-].[Co+2]", "note": "[CoCl2, reference compound]", "values": [{"measurement": "effect on nematocyst discharge", "setting": "[2]", "result": "inactivates nematocyst discharge"}]}
{"compound": "[Gd+3]", "note": "[Gd^+3]", "values": [{"measurement": "effect on discharge of nematocyte batteries", "setting": "[3]", "result": "prevents discharge"}]}
{"compound": "[Cl][La]([Cl])[Cl]", "note": "[LaCl3, Lanthanum Chloride]", "values": [{"measurement": "LaCl3 retained in the ointment", "setting": "[4]; ointment containing 50 mM LaCl3, 30 minutes water submersion", "result": 90, "unit": "%"}, {"measurement": "Lanthanum remaining in the ointment", "setting": "[4]; ointment containing 50 mM LaCl3, 60 minutes water submersion", "result": 77, "unit": "%"}, {"measurement": "LaCl3 left in the ointment", "setting": "[4]; ointment containing 50 mM LaCl3, 120 minutes water submersion", "result": 70, "unit": "%"}, {"measurement": "effect on nematocyst discharge", "setting": "[2]", "result": "inactivates nematocyst discharge"}, {"measurement": "inhibition of nematocyst penetration", "setting": "[5]; 2 mM LaCl3 in ointment", "result": 44, "unit": "%"}, {"measurement": "reduction in the sting", "setting": "[5]; 5 mM LaCl3 in ointment", "result": 76, "unit": "%"}, {"measurement": "reduction of the sting", "setting": "[5]; 50 mM LaCl3 in lotion", "result": 92, "unit": "%"}]}
